This passage reports AC50 results from patent EP4721737A1, “USE OF PHARMACEUTICAL COMPOSITION COMPRISING COMPOUND HAVING BIS(AZANYLYLIDENE) SULFONYL STRUCTURE FOR TREATING ANEMIA-RELATED DISEASES” (Scinnohub Pharmaceutical Co., Ltd., priority 2023, dated 2024).

Molecules are shown by their SMILES.

The target of the experiment is T1, PKR in ex vivo red blood cells from healthy individuals (Homo sapiens, UniProt P30613).
T1 construct: endogenous in cells; host or cells: human red blood cells isolated from fresh peripheral blood of healthy individuals
T1 sequence (P30613 whole entry): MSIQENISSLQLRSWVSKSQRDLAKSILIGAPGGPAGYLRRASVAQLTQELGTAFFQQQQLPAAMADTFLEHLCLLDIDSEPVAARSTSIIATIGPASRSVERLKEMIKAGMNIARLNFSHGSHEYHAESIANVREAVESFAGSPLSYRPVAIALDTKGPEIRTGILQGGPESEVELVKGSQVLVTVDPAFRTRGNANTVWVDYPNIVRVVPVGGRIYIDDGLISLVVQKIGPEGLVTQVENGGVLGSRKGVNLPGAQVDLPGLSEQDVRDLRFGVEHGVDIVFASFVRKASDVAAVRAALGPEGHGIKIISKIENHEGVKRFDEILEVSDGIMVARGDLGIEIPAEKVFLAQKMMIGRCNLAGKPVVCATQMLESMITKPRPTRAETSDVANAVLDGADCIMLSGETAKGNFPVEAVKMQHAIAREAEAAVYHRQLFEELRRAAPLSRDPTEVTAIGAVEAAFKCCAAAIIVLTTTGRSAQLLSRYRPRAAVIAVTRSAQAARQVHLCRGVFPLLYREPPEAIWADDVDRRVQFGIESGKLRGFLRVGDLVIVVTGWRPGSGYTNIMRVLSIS
Briefly: ex vivo pyruvate kinase (PKR) activity experiment, red blood cells of healthy individuals. As to conditions: 3 hours co-cultivation. The experiment is classed as cell-based. The protocol:
To test the effects of the compound of the present disclosure on PKR activation in ex vivo red blood cells from healthy individuals and patients with thalassemia.
• i. 5 g of glucose, 85 mg of adenine, and 2.625 g of mannitol were weighed and added into a 50 mL centrifuge tube. 40 mL of PBS was added to dissolve (sonicate for 30 minutes until completely dissolved). The solution was filtered through a 0.22 µm filter, then added to 460 mL of sterile PBS and mixed thoroughly.
• i. Fresh human peripheral blood was collected. K2EDTA was used as the anticoagulant. 1 part anticoagulant with 9 parts blood was mixed, then centrifuged at 500 g for 10 minutes at room temperature to remove the plasma. • ii. Packed red blood cells: 1.5 volumes of PBS were added, then centrifuged at 2000 ×g for 5 minutes at room temperature. After centrifugation, the supernatant was removed. This step was repeated twice. • iii. Diluted red blood cells: 1.5 volumes of PBS were added, then resuspended and mixed thoroughly. • iv. The diluted red blood cells were slowly added to 0.5 volume of 70% isotonic solution (e.g., 7.5 mL of diluted red blood cells + 3 mL of 70% isotonic solution Percoll) and centrifuged at 4000 ×g for 20 minutes at 4°C. • v. The supernatant was removed. The red blood cells at the bottom were washed once with 4-5 mL of PBS to elute the Percoll gel, and then centrifuged at 2000 ×g for 5 minutes at room temperature. • vi. The supernatant was removed. The red blood cells were counted and then diluted in AGAM medium containing 10% FBS to a density of 2 × 10^8 cells/mL for storage at 4°C.
i. The red blood cells were seeded into a 96-well plate at a uniform density of 1 × 10^7 cells/mL, with 100 µL per well. The test compounds (dissolved in DMSO) were diluted and added to the cell culture medium, resulting in final compound concentrations of 3000, 1000, 300, 100, 10, 3, and 1 nM (with 1% DMSO). The cells and compounds were co-cultivated for 3 hours in a 37°C incubator with 5% CO2. Subsequently, the plate was centrifuged at 2000 g for 20 minutes, and the supernatant was discarded. 100 µL of red blood cell lysis buffer was added to the cell pellet, vortexed for 20 minutes, and centrifuged at 4000 g for 5 minutes. The supernatant was collected for analysis. ii. The reaction system was prepared according to the kit instructions (shown as the table below), 10 µL of the reaction system was added to each well of a 384-well plate, and 10 µL of red blood cell lysis buffer was took and mixed well (20 µL reaction system).
iii. A black, transparent-bottomed 384-well plate was placed in a microplate reader to measure fluorescence at 540/590 nm. The fluorescence was read every 2 minutes for 1 hour.
i. The Slope value was calculated over the assay time. Compound activation percentage was calculated using the 1% DMSO well as the control well. Activation percentage = (Slope of compound well / Slope of control well) × 100% ii. Dose-response curve was fit using the logarithmic compound concentration on the X-axis and the percent activation percentage on the Y-axis, the log(agonist) vs. response - variable slope function in GraphPad Prism 5 was used to determine the AC50 value for each compound on PKR activity. Y = min + (max−min)/(1+10^(∧)((LogAC50−X)×Hillslope)). [formula] The PKR agonist effects of the compound of the present disclosure on ex vivo red blood cells from healthy individuals and thalassemia patients were determined using the above assay. The AC50 values measured on ex vivo red blood cells from healthy individuals are as follows (A represents 0-100 nM, B represents 101-300 nM, and C represents 300-1000 nM): […]
As to `O=C([C@H](CO)c1ccccc1)N1CC(=C2CN(S(=O)(=O)c3ccc4c(c3)OCCO4)C2)C1` [Compound 2, (S) -1-(1'-((2,3-dihydrobenzo[b][1,4]dioxin-6-yl)sulfonyl)-1',4'-dihydro-2H,2'H-[3,3'-diazetidinylidene]-1(4H)-yl)-3-hydroxy-2-phenylpropan-1-one], the AC50 lay in the range of 300 to 1000 nM.

On to `O=C(C(CO)c1ccc(F)c(Cl)c1)N1CC(=C2CN(S(=O)(=O)c3ccccn3)C2)C1` (centres unmarked) [Compound 59, 2-(3-chloro-4-fluorophenyl)-3-hydroxy-1-(1'-(pyridin-2-ylsulfonyl)-1',4'-dihydro-2H,2'H-[3,3'-diazetidinylidene]-1(4H)-yl)propan-1-one], for which the AC50 is < 100 nM.

In turn, `O=C1COc2ccc(S(=O)(=O)N3CC(=C4CN(C(=O)[C@H](CO)c5ccccc5)C4)C3)cc2N1` [Compound 40, (S)-6-((1'-(3-hydroxy-2-phenylpropionyl)-1',4'-dihydro-2H,2'H-[3,3'-diazetidinylidene]-1(4H)-yl)sulfonyl)-2H-benzo[b][1,4]oxazine-3(4H)-one] had an AC50 of 300 to 1000 nM.

For `O=C([C@H](CO)c1ccccc1)N1CC(=C2CN(S(=O)(=O)c3cc(F)c4c(c3)OCCO4)C2)C1` [Compound 20, (S)-1-(1'-((8-fluoro-2,3-dihydrobenzo[b][1,4]dioxin-6-yl)sulfonyl)-1',4'-dihydro-2H,2'H-[3,3'-diazetidinylidene]-1(4H)-yl)-3-hydroxy-2-phenylpropan-1-one], the AC50 fell in the range of 300 to 1000 nM.

For the compound `O=C([C@H](CO)c1ccccc1)N1CC(=C2CN(S(=O)(=O)c3ccc(Cl)cn3)C2)C1` [Compound 66], the AC50 was < 100 nM.

Compound `O=C([C@H](CO)c1ccccc1)N1CC(=C2CN(S(=O)(=O)c3ccc4c(c3)NCCO4)C2)C1` [Compound 12, (S)-1-(1'-((3,4-dihydro-2H-benzo[b][1,4]oxazin-6-yl)sulfonyl)-1',4'-dihydro-2H,2'H-[3,3'-diazetidinylidene]-1(4H)-yl)-3-hydroxy-2-phenylpropan-1-one] came in with a concentration at half-maximal activity (AC50) of 300 to 1000 nM.

Turning to `O=C([C@H](CO)c1ccccc1)N1CC(=C2CN(S(=O)(=O)c3ccccn3)C2)C1` [Compound 4, (S)-3-hydroxy-2-phenyl-1-(1'-(pyridin-2-ylsulfonyl)-1',4'-dihydro-2H,2'H-[3.3'-diazetidinylidene]-1(4H)-yl)propan-1-one], the AC50 is < 100 nM.

As for `O=C([C@H](CO)c1ccccc1)N1CC(=C2CN(S(=O)(=O)c3ccc(OC(F)F)cc3)C2)C1` [Compound 7, (S)-1-(1'-((4-(difluoromethoxy)phenyl)sulfonyl)-1',4'-dihydro-2H,2'H-[3,3'-diazetidinylidene]-1(4H)-yl)-3-hydroxy-2-phenylpropan-1-one], the AC50 was < 100 nM.

As to `CN1C(=O)COc2ccc(S(=O)(=O)N3CC(=C4CN(C(=O)[C@H](CO)c5ccccc5)C4)C3)cc21` [Compound 41, (S)-6-((1'-(3-hydroxy-2-phenylpropionyl)-1',4'-dihydro-2H,2'H-[3,3'-diazetidinylidene]-1(4H)-yl)sulfonyl)-4-methyl-2H-benzo[b][1,4]oxazine-3(4H)-one], the AC50 is < 100 nM.

In the case of `NC(C(=O)N1CC(=C2CN(S(=O)(=O)c3ccc(OC(F)F)cc3)C2)C1)c1ccc(F)cc1` (centres unmarked) [Compound 22, 2-amino-1-(1'-((4-(difluoromethoxy)phenyl)sulfonyl)-1',4'-dihydro-2H,2'H-[3,3'-diazetidinylidene]-1 (4H)-yl)-2-(4-fluorophenyl)ethan-1-one], the AC50 was < 100 nM.

The compound `CC(C)Oc1ccc(S(=O)(=O)N2CC(=C3CN(C(=O)[C@H](CO)c4ccccc4)C3)C2)nc1` [Compound 81, (S)-3-hydroxy-1-(1'-((5-isopropoxypyridin-2-yl)sulfonyl)-1',4'-dihydro-2H,2'H-[3,3'-diazetidinylidene]-1(4H)-yl)-2-phenylpropan-1-one] returned an AC50 of 300 to 1000 nM.
